Data published in the NIST ThermoML archive (doi:10.1021/je0603022).

Assays:
[1] = Liquid, Ebulliometric method (Recirculating still)
[2] = refractive index (Na D-line) (dimensionless); settings: 101.33 kPa, Liquid, Standard Abbe refractometry
[3] = refractive index (Na D-line) (dimensionless); xn = mol fraction of the nth substance listed; settings: 293.15 K, 101.3 kPa, Liquid, Standard Abbe refractometry

CCCCCC [hexane]
Settings | refractive index | vapor or sublimation pressure [kPa]
[1], 307.31 K | – | 29.67
[1], 311.36 K | – | 34.86
[1], 314.93 K | – | 40.02
[1], 316.81 K | – | 43.01
[1], 321.97 K | – | 52.02
[1], 323.15 K | – | 54.25
[1], 326.94 K | – | 62.11
[1], 331 K | – | 71.39
[1], 335.54 K | – | 83.09
[1], 338.15 K | – | 90.44
[1], 338.59 K | – | 91.73
[1], 342 K | – | 102.27
[2], 293.15 K | 1.3751 | –
[2], 298.15 K | 1.3724 | –

CCCCCC [hexane] + c1ccsc1
Settings | refractive index
[3], x2 = 0 | 1.3751

c1ccsc1 [thiophene] + CCCCCC
[3]
Settings | refractive index
x1 = 0.027 | 1.3774
x1 = 0.05 | 1.3794
x1 = 0.08 | 1.3822
x1 = 0.096 | 1.3836
x1 = 0.194 | 1.3933
x1 = 0.292 | 1.4039
x1 = 0.394 | 1.4161
x1 = 0.494 | 1.4296
x1 = 0.588 | 1.4438
x1 = 0.697 | 1.4624
x1 = 0.797 | 1.4814
x1 = 0.897 | 1.5034
x1 = 0.919 | 1.5084
x1 = 0.949 | 1.5158
x1 = 0.974 | 1.5219
x1 = 1 | 1.5287

C=CCCCC [hex-1-ene] + c1ccsc1
Settings | refractive index
[3], x2 = 0 | 1.3881

Cc1ccccc1 [toluene]
Settings | refractive index
[2], 298.15 K | 1.4939

c1ccsc1 [thiophene]
Settings | refractive index, 293.15 K | refractive index, 298.15 K | vapor or sublimation pressure, 323.15 K [kPa] | vapor or sublimation pressure, 333.15 K [kPa] | vapor or sublimation pressure, 338.15 K [kPa]
[1] | – | – | 31.21 | 45.44 | 54.27
[2] | 1.5287 | 1.5255 | – | – | –

c1ccsc1 [thiophene] + C=CCCCC
[3]
Settings | refractive index
x1 = 0.024 | 1.3903
x1 = 0.051 | 1.3926
x1 = 0.076 | 1.3949
x1 = 0.094 | 1.3966
x1 = 0.185 | 1.4055
x1 = 0.288 | 1.4163
x1 = 0.378 | 1.4266
x1 = 0.486 | 1.4402
x1 = 0.579 | 1.453
x1 = 0.683 | 1.4688
x1 = 0.788 | 1.4866
x1 = 0.89 | 1.5058
x1 = 0.91 | 1.5097
x1 = 0.948 | 1.5174
x1 = 0.974 | 1.523
x1 = 1 | 1.5287

C=CCCCC [hex-1-ene]
Settings | refractive index | vapor or sublimation pressure [kPa]
[1], 298.99 K | – | 25.68
[1], 302.85 K | – | 30.13
[1], 306.73 K | – | 35.19
[1], 310.9 K | – | 41.41
[1], 316.17 K | – | 50.46
[1], 320.92 K | – | 59.91
[1], 323.15 K | – | 64.82
[1], 325.41 K | – | 70.09
[1], 329.11 K | – | 79.46
[1], 330.99 K | – | 84.63
[1], 332.94 K | – | 90.24
[1], 333.15 K | – | 90.94
[1], 336.04 K | – | 99.73
[2], 293.15 K | 1.3881 | –
[2], 298.15 K | 1.3851 | –
